According to patent US11230541B2, “Heterocyclic compound” (Takeda Pharmaceutical Company Limited, priority 2017, dated 2022):

Target: T1, NMDA receptor composed of four subunits including 2 sets of heterodimers of NR1 and NR2B (Homo sapiens, UniProt Q13224)
T1 construct: host or cells: HEK293 (tetracycline-induced expression)
Assay: NR2B Ca2+ influx assay (FLIPR, Fluo-4) in HEK293 cells expressing human GRIN1 and GRIN2B
Type: cell-based
Conditions: HEK293, 10 μM final compound concentration, glutamic acid/glycine-induced Ca2+ influx, read-out: inhibitory rate (10 μM compound concentration)
Method in brief: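 Tetracycline-induced (2 h) HEK293 cells expressing human GRIN1/GRIN2B, Fluo-4-loaded, were preincubated 15 min at room temperature with compound at 10 μM final. FLIPR recorded Ca2+ influx every 3 s for 5 min after glutamate/glycine addition (30 μM in added buffer); inhibition from cumulative fluorescence relative to agonist-free wells.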

T1 sequence (Q13224 27-1484, other chains not shown): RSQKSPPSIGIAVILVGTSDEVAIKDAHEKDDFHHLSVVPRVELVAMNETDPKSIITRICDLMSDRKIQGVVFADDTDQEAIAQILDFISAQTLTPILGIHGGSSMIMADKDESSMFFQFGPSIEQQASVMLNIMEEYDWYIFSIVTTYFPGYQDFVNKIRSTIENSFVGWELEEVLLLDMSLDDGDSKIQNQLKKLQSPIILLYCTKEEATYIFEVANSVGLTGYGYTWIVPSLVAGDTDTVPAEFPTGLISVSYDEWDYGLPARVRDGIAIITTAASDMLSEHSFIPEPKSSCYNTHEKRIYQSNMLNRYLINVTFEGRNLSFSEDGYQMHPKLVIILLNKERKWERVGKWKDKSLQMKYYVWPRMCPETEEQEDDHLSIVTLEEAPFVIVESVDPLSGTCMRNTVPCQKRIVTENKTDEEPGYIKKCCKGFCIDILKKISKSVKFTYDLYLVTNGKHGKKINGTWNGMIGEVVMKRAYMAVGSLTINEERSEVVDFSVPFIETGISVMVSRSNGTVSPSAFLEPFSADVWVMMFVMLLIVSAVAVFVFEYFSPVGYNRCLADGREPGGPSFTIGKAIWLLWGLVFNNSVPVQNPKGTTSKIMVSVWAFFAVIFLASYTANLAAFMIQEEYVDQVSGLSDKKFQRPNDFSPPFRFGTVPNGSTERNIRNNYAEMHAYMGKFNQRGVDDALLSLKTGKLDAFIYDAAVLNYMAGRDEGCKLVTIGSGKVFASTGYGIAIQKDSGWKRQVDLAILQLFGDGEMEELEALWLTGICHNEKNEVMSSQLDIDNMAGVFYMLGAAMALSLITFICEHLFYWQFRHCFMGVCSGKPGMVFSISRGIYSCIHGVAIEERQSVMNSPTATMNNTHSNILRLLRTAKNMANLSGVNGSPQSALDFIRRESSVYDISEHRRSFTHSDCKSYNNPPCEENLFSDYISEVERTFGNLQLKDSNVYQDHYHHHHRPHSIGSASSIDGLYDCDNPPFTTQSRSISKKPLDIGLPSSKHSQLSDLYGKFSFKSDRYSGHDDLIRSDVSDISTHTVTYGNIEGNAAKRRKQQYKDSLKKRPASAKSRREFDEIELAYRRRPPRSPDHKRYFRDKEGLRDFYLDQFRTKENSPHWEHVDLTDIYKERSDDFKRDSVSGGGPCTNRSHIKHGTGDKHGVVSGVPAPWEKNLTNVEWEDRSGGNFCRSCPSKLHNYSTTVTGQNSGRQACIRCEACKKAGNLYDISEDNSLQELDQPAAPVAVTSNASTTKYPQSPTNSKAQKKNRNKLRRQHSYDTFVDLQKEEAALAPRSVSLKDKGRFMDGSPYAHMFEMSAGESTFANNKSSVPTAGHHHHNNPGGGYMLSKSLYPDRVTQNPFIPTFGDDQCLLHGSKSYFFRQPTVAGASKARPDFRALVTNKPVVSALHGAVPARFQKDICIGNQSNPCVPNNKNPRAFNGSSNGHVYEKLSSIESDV

Compound	inhibition at 10 µM [%]
COc1ccc2ncn(C)c2c1CNC(=O)Nc1cccc(C)c1 [Example 215, 1-((6-methoxy-1-methyl-1H-benzimidazol-7-yl)methyl)-3-(3-methylphenyl)urea]	53
COc1ccc2ncn(C)c2c1CNC(=O)Nc1cccc(F)c1 [Example 216, 1-(3-fluorophenyl)-3-((6-methoxy-l-methyl-1H-benzimidazol-7-yl)methyl)urea]	78
COc1ccc2ncn(C)c2c1CNC(=O)Nc1ccc(F)c(C)c1 [Example 217, 1-(4-fluoro-3-methylphenyl)-3-((6-methoxy-1-methyl-1H-benzimidazol-7-yl)methyl)urea]	82
COc1ccc2ncn(C)c2c1CNC(=O)Nc1ccc(C)c(F)c1 [Example 218, 1-(3-fluoro-4-methylphenyl)-3-((6-methoxy-1-methyl-1H-benzimidazol-7-yl)methyl)urea]	93
COc1ccc2ncn(C)c2c1CNC(=O)Nc1cccc(Cl)c1 [Example 219, 1-(3-chlorophenyl)-3-((6-methoxy-1-methyl-1H-benzimidazol-7-yl)methyl)urea]	72
COc1ccc2ncn(C)c2c1CNC(=O)Nc1cc(F)c(F)c(F)c1 [Example 220, 1-((6-methoxy-1-methyl-lH-benzimidazol-7-yl)methyl)-3-(3,4,5-trifluorophenyl)urea]	87
COc1ccc2ncn(C)c2c1CNC(=O)Nc1ccc(OC(F)F)cc1 [Example 221, 1-(4-(difluoromethoxy)-phenyl)-3-((6-methoxy-1-methyl-lH-benzimidazol-7-yl)methyl)urea]	88
COc1ccc2ncn(C)c2c1CNC(=O)Nc1cccc(C(F)(F)F)c1 [Example 222, 1-((6-methoxy-1-methyl-lH-benzimidazol-7-yl)methyl)-3-(3-(trifluoromethyl)-phenyl)urea]	55
COc1ccc2ncn(C)c2c1CNC(=O)Nc1ccc(OC(F)(F)F)cc1 [Example 223, 1-((6-methoxy-1-methyl-1H-benzimidazol-7-yl)methyl)-3-(4-(trifluoromethoxy)-phenyl)urea]	83
COc1ccc2ncn(C)c2c1CNC(=O)Nc1ccc(F)cc1 [Example 224, 1-(4-fluorophenyl)-3-((6-methoxy-1-methyl-1H-benzimidazol-7-yl)methyl)urea]	81
COc1ccc(NC(=O)NCc2c(OC)ccc3ncn(C)c23)cc1F [Example 225, 1-(3-fluoro-4-methoxyphenyl)-3-((6-methoxy-1-methyl-1H-benzimidazol-7-yl)methyl)urea]	84
O=C(NCc1c(C2CC2)ccc2[nH]nnc12)c1cnc(OC(F)F)c(F)c1 [Example 226, N-((5-cyclopropyl-1H-benzotriazol-4-yl)methyl)-6-(difluoromethoxy)-5-fluoronicotinamide]	94
COc1ccc2[nH]nnc2c1CNC(=O)c1ccc(OC(F)(F)F)c(F)c1 [Example 227, 3-fluoro-N-((5-methoxy-1H-benzotriazol-4-yl)methyl)-4-(trifluoromethoxy)-benzamide]	97
COc1ccc2nc(C)n(C)c2c1CNC(=O)c1csc(Cl)c1 [Example 228, 5-chloro-N-((6-methoxy-1,2-dimethyl-1H-benzimidazol-7-yl)methyl)thiophene-3-carboxamide]	70
COc1ccc2nc(C)n(C)c2c1CNC(=O)c1ccc(Cl)s1 [Example 229, 5-chloro-N-((6-methoxy-1,2-dimethyl-1H-benzimidazol-7-yl)methyl)thiophene-2-carboxamide]	62
COc1ccc2nc(C)n(C)c2c1CNC(=O)c1csc(C(F)(F)F)c1 [Example 230, N-((6-methoxy-1,2-dimethyl-1H-benzimidazol-7-yl)methyl)-5-(trifluoromethyl)-thiophene-3-carboxamide]	82
COc1ccc2nc(C)n(C)c2c1CNC(=O)c1ccc(C(F)(F)F)s1 [Example 231, N-((6-methoxy-1,2-dimethyl-lH-benzimidazol-7-yl)methyl)-5-(trifluoromethyl)-thiophene-2-carboxamide]	73
COc1ccc2nc(C)n(C)c2c1CNC(=O)c1csc(C(F)F)c1 [Example 232, 5-(difluoromethyl)-N-((6-methoxy-1,2-dimethyl-lH-benzimidazol-7-yl)methyl)thiophene-3-carboxamide]	64
COc1ccc2nc(C)n(C)c2c1CNC(=O)c1ccc(OC(F)(F)F)nc1 [Example 233, N-((6-methoxy-1,2-dimethyl-lH-benzimidazol-7-yl)methyl)-6-(trifluoromethoxy)-nicotinamide]	72
CCOc1ncc(C(=O)NCc2c(OC)ccc3nc(C)n(C)c23)cc1F [Example 234, 6-ethoxy-5-fluoro-N-((6-methoxy-1,2-dimethyl-lH-benzimidazol-7-yl)methyl)nicotinamide]	73

Compound	inhibition at 10 µM [%]
COc1ccc2nc(C)n(C)c2c1CNC(=O)c1cnc(OC)c(F)c1 [Example 235, 5-fluoro-6-methoxy-N-((6-methoxy-1,2-dimethyl-1H-benzimidazol-7-yl)methyl)nicotinamide]	57
COc1ccc2nc(C)n(C)c2c1CNC(=O)c1ccc(C(F)(F)F)c(F)c1 [Example 236, 3-fluoro-N-((6-methoxy-1,2-dimethyl-1H-benzimidazol-7-yl)methyl)-4-(trifluoromethyl)-benzamide]	59
COc1ccc2nc(C)n(C)c2c1CNC(=O)c1ccc(C(F)(F)F)cc1 [Example 237, N-((6-methoxy-1,2-dimethyl-1H-benzimidazol-7-yl)methyl)-4-(trifluoromethyl)-benzamide]	68
COc1ccc2nc(C)n(C)c2c1CNC(=O)c1ccc(C)c(F)c1 [Example 238, 3-fluoro-N-((6-methoxy-1,2-dimethyl-1H-benzimidazol-7-yl)methyl)-4-methylbenzamide]	61
COc1ccc2nc(C)n(C)c2c1CNC(=O)c1cc(F)c(C)c(F)c1 [Example 239, 3,5-difluoro-N-((6-methoxy-1,2-dimethyl-1H-benzimidazol-7-yl)methyl)-4-methylbenzamide]	60
COc1ccc2nc(C)n(C)c2c1CNC(=O)c1cc(F)c(C(F)F)c(F)c1 [Example 240, 4-(difluoromethyl)-3,5-difluoro-N-((6-methoxy-1,2-dimethyl-1H-benzimidazol-7-yl)methyl)benzamide]	53
COc1ccc2nc(C)n(C)c2c1CNC(=O)c1ccc(C(F)F)cc1 [Example 241, 4-(difluoromethyl)-N-((6-methoxy-1,2-dimethyl-lH-benzimidazol-7-yl)methyl)benzamide]	70
COc1ccc2nc(C)n(C)c2c1CNC(=O)c1ccc(C(F)F)c(F)c1 [Example 242, 4-(difluoromethyl)-3-fluoro-N-((6-methoxy-1,2-dimethyl-lH-benzimidazol-7-yl)methyl)benzamide]	69
COc1ccc(C(=O)NCc2c(OC)ccc3nc(C)n(C)c23)cc1F [Example 243, 3-fluoro-4-methoxy-N-((6-methoxy-1,2-dimethyl-lH-benzimidazol-7-yl)methyl)benzamide]	69
COc1ccc2nc(C)n(C)c2c1CNC(=O)c1ccc(OC(F)F)c(Cl)c1 [Example 244, 3-chloro-4-(difluoromethoxy)-N-((6-methoxy-1,2-dimethyl-lH-benzimidazol-7-yl)methyl)benzamide]	87
COc1ccc2nc(C)n(C)c2c1CNC(=O)c1ccc(OC(F)F)cc1 [Example 245, 4-(difluoromethoxy)-N-((6-methoxy-1,2-dimethyl-1H-benzimidazol-7-yl)methyl)benzamide]	81
COc1ccc2nc(C)n(C)c2c1CNC(=O)c1cc(F)c(OC(F)F)c(F)c1 [Example 246, 4-(difluoromethoxy)-3,5-difluoro-N-((6-methoxy-1,2-dimethyl-1H-benzimidazol-7-y1)methyl)benzamide]	87
COc1ccc2nc(C)n(C)c2c1CNC(=O)c1ccc(F)c(Cl)c1 [Example 247, 3-chloro-4-fluoro-N-((6-methoxy-1,2-dimethyl-1H-benzimidazol-7-yl)methyl)benzamide]	71
COc1ccc2nc(C)n(C)c2c1CNC(=O)c1ccc(Cl)c(F)c1 [Example 248, 4-chloro-3-fluoro-N-((6-methoxy-1,2-dimethyl-1H-benzimidazol-7-yl)methyl)benzamide]	64
COc1ccc2nc(C)n(C)c2c1CNC(=O)c1ccc(Cl)cc1 [Example 249, 4-chloro-N-((6-methoxy-1,2-dimethyl-1H-benzimidazol-7-yl)methyl)benzamide]	57
COc1ccc2nc(C)n(C)c2c1CNC(=O)c1ccc(C(F)F)c(Cl)c1 [Example 250]	58
COc1ccc2nc(C)n(C)c2c1CNC(=O)c1cnc(OC(F)F)c(F)c1 [Example 251, 6-(difluoromethoxy)-5-fluoro-N-((6-methoxy-1,2-dimethyl-1H-benzimidazol-7-yl)methyl)nicotinamide]	76
COc1ccc2nc(C)n(C)c2c1CNC(=O)c1ccc(OC(F)(F)F)cc1 [Example 252, N-((6-methoxy-l,2-dimethyl-1H-benzimidazol-7-yl)methyl)-4-(trifluoromethoxy)-benzamide]	88
COc1ccc2nc(C)n(C)c2c1CNC(=O)c1ccc(OC(F)F)c(F)c1 [Example 253, 4-(difluoromethoxy)-3-fluoro-N-((6-methoxy-1,2-dimethyl-1H-benzimidazol-7-yl)methyl)benzamide]	84
COc1ccc2nc(C)n(C)c2c1CNC(=O)c1ccc(OC(F)F)nc1 [Example 254, 6-(difluoromethoxy)-N-((6-methoxy-1,2-dimethyl-lH-benzimidazol-7-yl)methyl)nicotinamide]	69
